Measurements: patent US20040176431A1, “Antiproliferative 2-(sulfo-phenyl)-aminothiazole derivatives and pharmaceutical compositions, and methods for their use” (Pfizer, Inc., priority 2003, published 2004)

Target: T1, CDK4/cyclin D3 (Homo sapiens, UniProt P11802)
T1 construct: made in house; host or cells: insect cells (baculovirus co-infection)
Assay: Inhibition of CDK4/Cyclin D retinoblastoma kinase activity;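 for % Inhib CDK4/D @ 1 μM: relative to DMSO control wells without compound minus no-enzyme background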
Assay type: biochemical
Settings: for inhibition at 0.1 µM / % Inhib CDK4/D @ 0.1 μM: test compound at 0.1 μM; for inhibition at 0.1 µM: read-out: % Inhib CDK4/D @ 0.1 μM; for inhibition at 1 µM / % Inhib CDK4/D @ 1 μM: test compound at 1 μM (head line shifted: 'mM' printed beside 'Structure'); for inhibition at 1 µM: read-out: % Inhib CDK4/D @ 1 μM; for inhibition at 0.03 µM / % Inhib CDK4/D @ 0.03: test compound at 0.03 (unit cell empty, head line shifted; μM); for inhibition at 0.03 µM: read-out: % Inhib CDK4/D @ 0.03
In short: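 Human CDK4 with truncated cyclin D3 (1-264) from baculovirus-infected insect cells, 5 nM, phosphorylating His-tagged Rb fragment (386-928) with 25 μM [32P/33P]ATP in pH 7.4 HEPES/MgCl2, 2% DMSO, 30° C., 20 min (60 min for tight binders). Filter capture, phosphorimager; apparent Ki from competitive or tight-binding competitive fits.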

T1 sequence (P11802 whole entry): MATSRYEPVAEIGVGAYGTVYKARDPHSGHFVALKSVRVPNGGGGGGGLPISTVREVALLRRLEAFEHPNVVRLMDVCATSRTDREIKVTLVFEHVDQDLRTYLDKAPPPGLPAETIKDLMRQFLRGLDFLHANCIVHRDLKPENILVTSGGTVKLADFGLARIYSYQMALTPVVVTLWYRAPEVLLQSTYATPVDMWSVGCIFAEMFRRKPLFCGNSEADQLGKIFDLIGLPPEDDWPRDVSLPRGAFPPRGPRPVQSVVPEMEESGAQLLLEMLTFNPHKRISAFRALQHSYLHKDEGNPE
T1 sequence (P30281 1-264 partner limits assumed): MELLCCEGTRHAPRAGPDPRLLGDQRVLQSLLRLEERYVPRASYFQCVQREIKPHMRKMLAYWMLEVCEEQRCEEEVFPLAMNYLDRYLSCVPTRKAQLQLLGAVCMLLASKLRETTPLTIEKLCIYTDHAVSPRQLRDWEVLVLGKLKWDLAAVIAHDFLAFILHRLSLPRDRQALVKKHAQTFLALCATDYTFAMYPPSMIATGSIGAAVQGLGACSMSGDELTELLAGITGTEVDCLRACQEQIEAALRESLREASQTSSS

SMILES: Cc1noc(C)c1C[S+]([O-])c1cccc(Nc2nc(N)c(C(=O)c3c(Cl)cccc3Cl)s2)c1 (stereo not drawn) [DD(122)]
- inhibition at 0.1 µM: 40%
- inhibition at 1 µM: 54.3%
- inhibition at 0.03 µM: 16%

SMILES: CC(=O)OCCS(=O)(=O)c1ccc(Nc2nc(N)c(C(=O)c3c(Cl)cccc3Cl)s2)cc1 [DD(197)]
- inhibition at 0.1 µM: 37%
- % Inhib CDK4/D @ 1 μM: 62.3%
- % Inhib CDK4/D @ 0.03: 6.5%

SMILES: CC(=O)OCC[S+]([O-])c1ccc(Nc2nc(N)c(C(=O)c3c(Cl)cccc3Cl)s2)cc1 (stereo not drawn) [DD(117)]
- inhibition at 0.1 µM: 52%
- inhibition at 1 µM: 61.1%
- inhibition at 0.03 µM: 16%

SMILES: Nc1nc(Nc2ccc(S(=O)(=O)CCO)cc2)sc1C(=O)c1c(Cl)cccc1Cl [DD(189)]
- inhibition at 0.1 µM: 31%
- % Inhib CDK4/D @ 1 μM: 32.2%
- % Inhib CDK4/D @ 0.03: −19%

SMILES: CC(C)OC(=O)CCS(=O)(=O)c1ccc(Nc2nc(N)c(C(=O)c3c(Cl)cccc3Cl)s2)cc1 [DD(198)]
- inhibition at 0.1 µM: 9.2%
- inhibition at 1 µM: 5.1%
- inhibition at 0.03 µM: -24%

SMILES: CC(C)CCOC(=O)CS(=O)(=O)c1ccc(Nc2nc(N)c(C(=O)c3c(Cl)cccc3Cl)s2)cc1 [DD(191)]
- % Inhib CDK4/D @ 0.1 μM: 31%
- % Inhib CDK4/D @ 1 μM: 9.3%
- % Inhib CDK4/D @ 0.03: −24%

SMILES: CCOCC[S+]([O-])c1ccc(Nc2nc(N)c(C(=O)c3c(Cl)cccc3Cl)s2)cc1 (stereo not drawn) [DD(113)]
- inhibition at 0.1 µM: 30%
- inhibition at 1 µM: 59.4%
- inhibition at 0.03 µM: 1.1%

SMILES: Nc1nc(Nc2cccc([S+]([O-])CCCO)c2)sc1C(=O)c1c(Cl)cccc1Cl (stereo not drawn) [DD(125)]
- inhibition at 0.1 µM: 55%
- inhibition at 1 µM: 61.5%
- inhibition at 0.03 µM: 15%

SMILES: Nc1nc(Nc2cccc(SCC3CC3)c2)sc1C(=O)c1c(Cl)cccc1Cl [DD(56)]
- inhibition at 0.1 µM: 17%
- inhibition at 1 µM: 55.4%
- inhibition at 0.03 µM: 2.9%

SMILES: CN1CCCC1CCSc1ccc(Nc2nc(N)c(C(=O)c3c(Cl)cccc3Cl)s2)cc1 (stereo not drawn) [DD(19)]
- inhibition at 0.1 µM: 19%
- inhibition at 1 µM: 82.9%
- inhibition at 0.03 µM: -3%

SMILES: CN(C)CCCS(=O)(=O)c1ccc(Nc2nc(N)c(C(=O)c3c(Cl)cccc3Cl)s2)cc1 [DD(170)]
- inhibition at 0.1 µM: 18%
- inhibition at 1 µM: 25.8%
- inhibition at 0.03 µM: 22%

SMILES: CCOC(=O)CCSc1cccc(Nc2nc(N)c(C(=O)c3c(Cl)cccc3Cl)s2)c1 [DD(62)]
- inhibition at 0.1 µM: 27%
- inhibition at 1 µM: 46.4%
- inhibition at 0.03 µM: 6.4%

SMILES: CCC[S+]([O-])c1ccc(Nc2nc(N)c(C(=O)c3c(Cl)cccc3Cl)s2)cc1 (stereo not drawn) [DD(105)]
- inhibition at 0.1 µM: 39%
- inhibition at 1 µM: 61.9%
- inhibition at 0.03 µM: 0.9%

SMILES: COCCS(=O)(=O)c1ccc(Nc2nc(N)c(C(=O)c3c(Cl)cccc3Cl)s2)cc1 [DD(214)]
- % Inhib CDK4/D @ 0.1 μM: 29%
- % Inhib CDK4/D @ 1 μM: 60.6%
- % Inhib CDK4/D @ 0.03: −10%

SMILES: NC(=O)CCS(=O)(=O)c1ccc(Nc2nc(N)c(C(=O)c3c(Cl)cccc3Cl)s2)cc1 [DD(188)]
- inhibition at 0.1 µM: 35%
- inhibition at 1 µM: 25.9%
- % Inhib CDK4/D @ 0.03: −11%

SMILES: CC(C)(CO)CSc1ccc(Nc2nc(N)c(C(=O)c3c(Cl)cccc3Cl)s2)cc1 [DD(40)]
- inhibition at 0.1 µM: 23%
- inhibition at 1 µM: 50.3%
- inhibition at 0.03 µM: -1.2%

SMILES: C=CCC[S+]([O-])c1ccc(Nc2nc(N)c(C(=O)c3c(Cl)cccc3Cl)s2)cc1 (stereo not drawn) [DD(86)]
- inhibition at 0.1 µM: 36%
- inhibition at 1 µM: 62.5%
- inhibition at 0.03 µM: -9.8%

SMILES: COC(=O)/C=C/CS(=O)(=O)c1ccc(Nc2nc(N)c(C(=O)c3c(Cl)cccc3Cl)s2)cc1 [DD(164)]
- % Inhib CDK4/D @ 0.1 μM: 8.6%
- % Inhib CDK4/D @ 1 μM: −6.9%
- % Inhib CDK4/D @ 0.03: −7.4%

SMILES: Nc1nc(Nc2ccc(S(=O)(=O)Cc3ncon3)cc2)sc1C(=O)c1c(Cl)cccc1Cl [DD(208)]
- % Inhib CDK4/D @ 0.1 μM: 36%
- % Inhib CDK4/D @ 1 μM: 47.8%
- % Inhib CDK4/D @ 0.03: 0.2%

SMILES: CN1CCCC1CCS(=O)(=O)c1ccc(Nc2nc(N)c(C(=O)c3c(Cl)cccc3Cl)s2)cc1 (stereo not drawn) [DD(219)]
- % Inhib CDK4/D @ 0.1 μM: 22%
- % Inhib CDK4/D @ 1 μM: 19.5%
- % Inhib CDK4/D @ 0.03: 3.3%

SMILES: CC(C)(CO)C[S+]([O-])c1ccc(Nc2nc(N)c(C(=O)c3c(Cl)cccc3Cl)s2)cc1 (stereo not drawn) [DD(120)]
- inhibition at 0.1 µM: 29%
- inhibition at 1 µM: 57.1%
- inhibition at 0.03 µM: -34%

SMILES: CC(=O)OCCS(=O)(=O)c1ccc(Nc2nc(N)c(C(=O)c3c(Cl)cccc3Cl)s2)cc1 [DD(237)]
- % Inhib CDK4/D @ 0.1 μM: 22%
- % Inhib CDK4/D @ 1 μM: 7.3%
- % Inhib CDK4/D @ 0.03: −1.7%

SMILES: Nc1nc(Nc2ccc([S+]([O-])CCN3CCOCC3)cc2)sc1C(=O)c1c(Cl)cccc1Cl (stereo not drawn) [DD(119)]
- inhibition at 0.1 µM: 36%
- inhibition at 1 µM: 58%
- inhibition at 0.03 µM: 3.8%

SMILES: Nc1nc(Nc2cccc([S+]([O-])CCN3CCOCC3)c2)sc1C(=O)c1c(Cl)cccc1Cl (stereo not drawn) [DD(159)]
- inhibition at 0.1 µM: 25%
- inhibition at 1 µM: 44%
- inhibition at 0.03 µM: 36%

SMILES: CC(C)OC(=O)CS(=O)(=O)c1ccc(Nc2nc(N)c(C(=O)c3c(Cl)cccc3Cl)s2)cc1 [DD(183)]
- % Inhib CDK4/D @ 0.1 μM: 17%
- % Inhib CDK4/D @ 1 μM: 1.9%
- % Inhib CDK4/D @ 0.03: 8.6%

SMILES: CCC(CC)C[S+]([O-])c1ccc(Nc2nc(N)c(C(=O)c3c(Cl)cccc3Cl)s2)cc1 (stereo not drawn) [DD(116)]
- inhibition at 0.1 µM: 15%
- inhibition at 1 µM: 26.6%
- inhibition at 0.03 µM: -2.9%

SMILES: COC(=O)/C=C/C[S+]([O-])c1ccc(Nc2nc(N)c(C(=O)c3c(Cl)cccc3Cl)s2)cc1 (stereo not drawn) [DD(84)]
- inhibition at 0.1 µM: 26%
- inhibition at 1 µM: 45.7%
- inhibition at 0.03 µM: -5.6%

SMILES: Nc1nc(Nc2cccc([S+]([O-])Cc3ncon3)c2)sc1C(=O)c1c(Cl)cccc1Cl (stereo not drawn) [DD(128)]
- inhibition at 0.1 µM: 54%
- inhibition at 1 µM: 49.9%
- inhibition at 0.03 µM: 12%

SMILES: CCOC(=O)CCS(=O)(=O)c1ccc(Nc2nc(N)c(C(=O)c3c(Cl)cccc3Cl)s2)cc1 [DD(222)]
- % Inhib CDK4/D @ 0.1 μM: −11%
- % Inhib CDK4/D @ 1 μM: −11%
- % Inhib CDK4/D @ 0.03: −9%

SMILES: CC(C)OC(=O)CCSc1ccc(Nc2nc(N)c(C(=O)c3c(Cl)cccc3Cl)s2)cc1 [DD(38)]
- inhibition at 0.1 µM: 32%
- inhibition at 1 µM: 57.8%
- inhibition at 0.03 µM: 6.5%

SMILES: CN(C)CCSc1cccc(Nc2nc(N)c(C(=O)c3c(Cl)cccc3Cl)s2)c1 [DD(72)]
- inhibition at 0.1 µM: 25%
- inhibition at 1 µM: 69%
- inhibition at 0.03 µM: -1.1%

SMILES: CCOC(=O)CC[S+]([O-])c1cccc(Nc2nc(N)c(C(=O)c3c(Cl)cccc3Cl)s2)c1 (stereo not drawn) [DD(142)]
- inhibition at 0.1 µM: 36%
- inhibition at 1 µM: 39.3%
- inhibition at 0.03 µM: -2.6%

SMILES: Nc1nc(Nc2ccc([S+]([O-])CCN3CCCC3)cc2)sc1C(=O)c1c(Cl)cccc1Cl (stereo not drawn) [DD(87)]
- inhibition at 0.1 µM: 29%
- inhibition at 1 µM: 68.2%
- inhibition at 0.03 µM: -16%

SMILES: CCC(CC)C[S+]([O-])c1cccc(Nc2nc(N)c(C(=O)c3c(Cl)cccc3Cl)s2)c1 (stereo not drawn) [DD(156)]
- inhibition at 0.1 µM: 25%
- inhibition at 1 µM: 15.1%
- inhibition at 0.03 µM: 17%

SMILES: CCCS(=O)(=O)c1ccc(Nc2nc(N)c(C(=O)c3c(Cl)cccc3Cl)s2)cc1 [DD(225)]
- % Inhib CDK4/D @ 0.1 μM: 17%
- % Inhib CDK4/D @ 1 μM: 0.6%
- % Inhib CDK4/D @ 0.03: −5%

SMILES: CCN(CC)C(=O)C[S+]([O-])c1ccc(Nc2nc(N)c(C(=O)c3c(Cl)cccc3Cl)s2)cc1 (stereo not drawn) [DD(81)]
- inhibition at 0.1 µM: 21%
- inhibition at 1 µM: 57.4%
- inhibition at 0.03 µM: -21%

SMILES: Nc1nc(Nc2ccc([S+]([O-])CCO)cc2)sc1C(=O)c1c(Cl)cccc1Cl (stereo not drawn) [DD(110)]
- % Inhib CDK4/D @ 0.1 μM: 27%
- % Inhib CDK4/D @ 1 μM: 28.9%
- % Inhib CDK4/D @ 0.03: 3.7%
